Laboratory results published in patent US6737383B1, “Herbicidal oxadiazolidines” (priority 1999, dated 2004).

Key:
barnyardgrass = assay: Test C postemergence barnyardgrass; type: in vivo, Echinochloa crus-galli; conditions: 0 to 100 scale, 0 no effect, 100 complete control
Protocol: (§1) Compounds evaluated in this test were formulated in a non-phytotoxic solvent mixture which included a surfactant and applied to plants that were grown for various periods of time before treatment (postemergence application). A mixture of sandy loam soil and greenhouse potting mix in a 60:40 ratio was used for the postemergence test.
(§2) Plantings of these crops and weed species were adjusted to produce plants of appropriate size for the postemergence test. All plant species were grown using normal greenhouse practices. Crop and weed species include arrowleaf sida (Sida rhombifolia), barnyardgrass (Echinochloa crus-galli), cocklebur (Xanthium strumarium), common ragweed (Ambrosia elatior), corn (Zea mays), cotton (Gossypium hirsutum), eastern black nightshade (Solanum ptycanthum), fall panicum (Panicum dichotomiflorum), field bindweed (Convolvulus arvensis), giant foxtail (Setaria faberii), hairy beggarticks (Bidens pilosa), ivyleaf morningglory (Ipomoea hederacea), johnsongrass (Sorghum halepense), ladysthumb smartweed (Polygonum persicaria), lambsquarters (Chenopodium album), large crabgrass (Digitaria sanguinalis), purple nutsedge (Cyperus rotundus), redroot pigweed (Amaranthus retroflexus), soybean (Glycine max), surinam grass (Brachiaria decumbens), velvetleaf (Abutilon theophrasti) and wild poinsettia (Euphorbia heterophylla).
(§3) Treated plants and untreated controls were maintained in a greenhouse for approximately 14, to 21 days, after which all treated plants were compared to untreated controls and visually evaluated. Plant response ratings, summarized in Table C, were based upon a 0 to 100 scale where 0 was no effect and 100 was complete control. A dash response (−) means no test result.

corn = assay: Test C postemergence corn; type: in vivo, Zea mays; conditions: 0 to 100 scale, 0 no effect, 100 complete control
Outline: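 Greenhouse postemergence test: compound applied in solvent/surfactant formulation to established plants; visual scoring 0–100 against untreated controls after roughly two to three weeks (14–21 days).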

ivyleaf morningglory = assay: Test C postemergence ivyleaf morningglory; type: in vivo, Ipomoea hederacea; conditions: 0 to 100 scale, 0 no effect, 100 complete control
Protocol: as §1, §2, §3

annual bluegrass = assay: Test E annual bluegrass; type: in vivo, Poa annua; conditions: Postemergence
Outline: (§4)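 Each compound, carried in a non-phytotoxic solvent blend including surfactant, was applied (postemergence: over the top of young plants at 1- to 4-leaf stage). Plants stayed in the greenhouse about 21 to 28 days before visual comparison with untreated controls.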

blackgrass = assay: Test E blackgrass; type: in vivo, Alopecurus myosuroides; conditions: Postemergence
Protocol: as §1, with “in the 1- to 4-leaf stage” for “grown for various periods of time before treatment”
(§5) Plantings of these crops and weed species were adjusted to produce plants of appropriate size for the postemergence test. All plant species were grown using normal greenhouse practices. Crop and weed species include annual bluegrass (Poa annua), blackgrass (Alopecurus myosuroides), black nightshade (Solanum nigra), chickweed (Stellaria media), common poppy (Papaver rhoeas), deadnettle (Lamium amplexicaule), downy brome (Bromus tectorum), field violet (Viola arvensis), galium (Galium aparine), green foxtail (Setaria viridis), Italian ryegrass (Lolium multiflorum), jointed goatgrass (Aegilops cylindrica), kochia (Kochia scoparia), lambsquarters (Chenopodium album), littleseed canarygrass (Phalaris minor), rape (Brassica napus), redroot pigweed (Amaranthus retroflexus), Russian thistle (Salsola kali), scentless chamomile (Matricaria inodora), spring barley (Hordeum vulgare), sugar beet (Beta vulgaris), sunflower (Helianthus annuus), ivyleaf speedwell (Veronica hederaefolia), spring wheat (Triticum aestivum), winter wheat (Triticum aestivum), wild buckwheat (Polygonum convolvulus), wild mustard (Sinapis arvensis), wild oat (Avena fatua), windgrass (Apera spica-venti) and winter barley (Hordeum vulgare).
(§6) Treated plants and untreated controls were maintained in a greenhouse for approximately 21 to 28 days, after which all treated plants were compared to untreated controls and visually evaluated. […] A dash response (-) means no test result.

black nightshade = assay: Test E black nightshade; type: in vivo, Solanum nigra; conditions: Postemergence
Protocol: as §1, with “in the 1- to 4-leaf stage” for “grown for various periods of time before treatment”
as §5, §6

chickweed = assay: Test E chickweed; type: in vivo, Stellaria media; conditions: Postemergence
Protocol: as §1, with “in the 1- to 4-leaf stage” for “grown for various periods of time before treatment”
as §5, §6

green foxtail = assay: Test E green foxtail; type: in vivo, Setaria viridis; conditions: Postemergence
Protocol: as §1, with “in the 1- to 4-leaf stage” for “grown for various periods of time before treatment”
as §5, §6

jointed goatgrass = assay: Test E jointed goatgrass; type: in vivo, Aegilops cylindrica; conditions: Postemergence
Outline: as §4

sunflower [1] = assay: Test E sunflower; type: in vivo, Helianthus annuus; conditions: Postemergence
Protocol: as §5, with “Plantings of these crops and weed species were adjusted to produce plants of appropriate size for the postemergence test.” left out
as §6

ivyleaf speedwell = assay: Test E postemergence ivyleaf speedwell; type: in vivo, Veronica hederaefolia
Protocol: as §1, with “in the 1- to 4-leaf stage” for “grown for various periods of time before treatment”
as §5, §6

lambsquarters = assay: Test E lambsquarters; type: in vivo, Chenopodium album; conditions: Preemergence
sunflower [2] = assay: Test E sunflower; type: in vivo, Helianthus annuus; conditions: Preemergence
[3] = Rate 250 g/ha, 0 to 100 scale (0 no effect, 100 complete control)
[4] = Rate 62 g/ha, 0 to 100 scale, 0 no effect, 100 complete control
[5] = Rate 125 g/ha, 0 to 100 scale (0 no effect, 100 complete control)
[6] = Rate 500 g/ha, 0 to 100 scale, 0 no effect, 100 complete control
[7] = Rate 500 g/ha, 0 to 100 scale where 0 is no effect and 100 is complete control

CCn1c(=O)on(C(=O)N(c2ccc(F)cc2)C(C)C)c1=O [Compound 107]
Plant response rating, Barnyardgrass (barnyardgrass; Rate 140 g/ha): 70
Plant response rating, Barnyardgrass (barnyardgrass; Rate 280 g/ha): 85
Plant response rating, Barnyardgrass (barnyardgrass; Rate 560 g/ha): 90
Plant response rating, Barnyardgrass (barnyardgrass; Rate 1120 g/ha): 95
Plant response rating, Corn (corn; Rate 140 g/ha): 0
Plant response rating, Corn (corn; Rate 280 g/ha): 5
Plant response rating, Corn (corn; Rate 560 g/ha): 55
Plant response rating, Corn (corn; Rate 1120 g/ha): 60
Plant response rating I. morningglory (ivyleaf morningglory; Rate 140 g/ha): 10
Plant response rating I. morningglory (ivyleaf morningglory; Rate 280 g/ha): 30
Plant response rating I. morningglory (ivyleaf morningglory; Rate 560 g/ha): 30
Plant response rating I. morningglory (ivyleaf morningglory; Rate 1120 g/ha): 95
Plant response rating, Annual bluegras (annual bluegrass; Rate 62 g/ha, 0 to 100 scale): 20
Plant response rating, Annual bluegras (annual bluegrass; Rate 125 g/ha, 0 to 100 scale): 5
Plant response rating, Annual bluegras (annual bluegrass; [3]): 50
Plant response rating, Blackgrass (blackgrass; Rate 62 g/ha, 0 to 100 scale): 5
Plant response rating, Blackgrass (blackgrass; Rate 125 g/ha, 0 to 100 scale): 80
Plant response rating, Blackgrass (blackgrass; [3]): 85
Plant response rating, Blk nightshade (black nightshade; Rate 62 g/ha, 0 to 100 scale): 10
Plant response rating, Blk nightshade (black nightshade; Rate 125 g/ha, 0 to 100 scale): 30
Plant response rating, Blk nightshade (black nightshade; [3]): 60
Plant response rating, Chickweed (chickweed; Rate 62 g/ha, 0 to 100 scale): 10
Plant response rating, Chickweed (chickweed; Rate 125 g/ha, 0 to 100 scale): 0
Plant response rating, Chickweed (chickweed; [3]): 0
Plant response rating, Green foxtail (green foxtail; Rate 62 g/ha, 0 to 100 scale): 20
Plant response rating, Green foxtail (green foxtail; Rate 125 g/ha, 0 to 100 scale): 30
Plant response rating, Green foxtail (green foxtail; [3]): 85
Plant response rating, Jointed goatgra (jointed goatgrass; Rate 62 g/ha, 0 to 100 scale): 0
Plant response rating, Jointed goatgra (jointed goatgrass; Rate 125 g/ha, 0 to 100 scale): 10
Plant response rating, Jointed goatgra (jointed goatgrass; [3]): 10
Plant response rating, Sunflower (sunflower [1]; Rate 62 g/ha, 0 to 100 scale): 10
Plant response rating, Sunflower (sunflower [1]; Rate 125 g/ha, 0 to 100 scale): 20
Plant response rating, Sunflower (sunflower [1]; [3]): 30
Plant response rating, Veronica hedera (ivyleaf speedwell; Rate 62 g/ha, 0 to 100 scale): 10
Plant response rating, Veronica hedera (ivyleaf speedwell; Rate 125 g/ha, 0 to 100 scale): 0
Plant response rating, Veronica hedera (ivyleaf speedwell; [3]): 10
Plant response rating, Lambsquarters (lambsquarters; [4]): 100
Plant response rating, Lambsquarters (lambsquarters; [5]): 100
Plant response rating, Lambsquarters (lambsquarters; Rate 250 g/ha, 0 to 100 scale): 100
Plant response rating, Sunflower (sunflower [2]; [4]): 20
Plant response rating, Sunflower (sunflower [2]; [5]): 30
Plant response rating, Sunflower (sunflower [2]; Rate 250 g/ha, 0 to 100 scale): 40

CCn1c(=O)on(C(=O)N(c2ccc(F)cc2F)C(C)C)c1=O [Compound 116]
Plant response rating, Barnyardgrass (barnyardgrass; Rate 140 g/ha): 55
Plant response rating, Barnyardgrass (barnyardgrass; Rate 280 g/ha): 85
Plant response rating, Barnyardgrass (barnyardgrass; Rate 560 g/ha): 90
Plant response rating, Barnyardgrass (barnyardgrass; Rate 1120 g/ha): 90
Plant response rating, Corn (corn; Rate 140 g/ha): 0
Plant response rating, Corn (corn; Rate 280 g/ha): 0
Plant response rating, Corn (corn; Rate 560 g/ha): 15
Plant response rating, Corn (corn; Rate 1120 g/ha): 20
Plant response rating I. morningglory (ivyleaf morningglory; Rate 140 g/ha): 0
Plant response rating I. morningglory (ivyleaf morningglory; Rate 280 g/ha): 0
Plant response rating I. morningglory (ivyleaf morningglory; Rate 560 g/ha): 0
Plant response rating I. morningglory (ivyleaf morningglory; Rate 1120 g/ha): 20
Plant response rating, Annual bluegras (annual bluegrass; Rate 62 g/ha, 0 to 100 scale): 100
Plant response rating, Annual bluegras (annual bluegrass; Rate 125 g/ha, 0 to 100 scale): 50
Plant response rating, Annual bluegras (annual bluegrass; [3]): 70
Plant response rating, Annual bluegras (annual bluegrass; [6]): 75
Plant response rating, Blackgrass (blackgrass; Rate 62 g/ha, 0 to 100 scale): 0
Plant response rating, Blackgrass (blackgrass; Rate 125 g/ha, 0 to 100 scale): 40
Plant response rating, Blackgrass (blackgrass; [3]): 80
Plant response rating, Blackgrass (blackgrass; [6]): 80
Plant response rating, Blk nightshade (black nightshade; Rate 62 g/ha, 0 to 100 scale): 10
Plant response rating, Blk nightshade (black nightshade; Rate 125 g/ha, 0 to 100 scale): 50
Plant response rating, Blk nightshade (black nightshade; [3]): 50
Plant response rating, Blk nightshade (black nightshade; [6]): 60
Plant response rating, Chickweed (chickweed; Rate 62 g/ha, 0 to 100 scale): 0
Plant response rating, Chickweed (chickweed; Rate 125 g/ha, 0 to 100 scale): 0
Plant response rating, Chickweed (chickweed; [3]): 20
Plant response rating, Chickweed (chickweed; [6]): 50
Plant response rating, Green foxtail (green foxtail; Rate 62 g/ha, 0 to 100 scale): 20
Plant response rating, Green foxtail (green foxtail; Rate 125 g/ha, 0 to 100 scale): 70
Plant response rating, Green foxtail (green foxtail; [3]): 75
Plant response rating, Green foxtail (green foxtail; [6]): 75
Plant response rating, Jointed goatgra (jointed goatgrass; Rate 62 g/ha, 0 to 100 scale): 30
Plant response rating, Jointed goatgra (jointed goatgrass; Rate 125 g/ha, 0 to 100 scale): 20
Plant response rating, Jointed goatgra (jointed goatgrass; [3]): 40
Plant response rating, Jointed goatgra (jointed goatgrass; [6]): 50
Plant response rating, Sunflower (sunflower [1]; Rate 62 g/ha, 0 to 100 scale): 20
Plant response rating, Sunflower (sunflower [1]; Rate 125 g/ha, 0 to 100 scale): 0
Plant response rating, Sunflower (sunflower [1]; [3]): 0
Plant response rating, Sunflower (sunflower [1]; [6]): 0
Plant response rating, Veronica hedera (ivyleaf speedwell; Rate 125 g/ha, 0 to 100 scale): 0
Plant response rating, Veronica hedera (ivyleaf speedwell; [3]): 0
Plant response rating, Veronica hedera (ivyleaf speedwell; [6]): 70
Plant response rating, Lambsquarters (lambsquarters; [5]): 100
Plant response rating, Lambsquarters (lambsquarters; Rate 250 g/ha, 0 to 100 scale): 100
Plant response rating, Lambsquarters (lambsquarters; [7]): 100
Plant response rating, Sunflower (sunflower [2]; [5]): 15
Plant response rating, Sunflower (sunflower [2]; Rate 250 g/ha, 0 to 100 scale): 40
Plant response rating, Sunflower (sunflower [2]; [7]): 70
